Measurements: patent publication US9914755B2, “Cyclosporin derivatives wherein the MeBmt sidechain has been cyclized” (Allergan, Inc., priority 2015, dated 2018)
In brackets after ≈: the same amount, converted by molar mass. Starred links: 1 amine or outer side, 2 acyl side, 3 side chain; linkers in the order of their positions; H or OH if unused. Non-standard residues stand in square brackets, D forms with d. Residues, ends and D or L forms follow the SMILES beside them. X2 = C[C@@H]1CC(O)O[C@H]1[C@H](C(=O)[*:2])N(C)[*:1]; X1 = C[C@@H]1CCO[C@H]1[C@H](C(=O)[*:2])N(C)[*:1]; NMeL = CN[C@@H](CC(C)C)C(=O)O; dNMeL = CN[C@H](CC(C)C)C(=O)O; dNMeV = CN[C@@H](C(=O)O)C(C)C; dNMeA = CN[C@H](C)C(=O)O

How the values were obtained:
[1] = target: T1, Human recombinant cyclophilin A (CypA) (Homo sapiens, UniProt P62937); test: Protease-free PPIase assay, cyclophilin A; format: biochemical; details: human recombinant CypA, 10 °C, SUC-AAPF-pNA substrate; read-out: CypA Protease-free PPIase Assay Ki
T1 construct: purchased Sigma C3805
T1 sequence (P62937 whole entry): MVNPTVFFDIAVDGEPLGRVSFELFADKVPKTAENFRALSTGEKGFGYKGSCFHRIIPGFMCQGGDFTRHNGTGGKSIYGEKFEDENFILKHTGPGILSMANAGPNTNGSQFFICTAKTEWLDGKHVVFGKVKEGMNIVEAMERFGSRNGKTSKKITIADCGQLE
Procedure: (§1) Protease-Free PPIase Assay The protease-free PPIase assay measures the rate of cis to trans conversion of a peptide substrate catalyzed by the enzyme cyclophilin A or D. Addition of a cyclophilin inhibitor (e.g., a test compound) slows the catalyzed rate and a Ki value is obtained. 35 mM HEPES pH 7.8, filtered through a 0.2 μm filter. 50 μM DTT was added prior to use each day and then the buffer was stored on ice. […] Human recombinant 6-His tagged cyclophilin D (CypD), prepared by the University of Edinburgh, was used to generate CypD inhibition data. Succinimide-[…]-nitroanilide (SUC-AAPF-pNA) (from Bachem AG, L-1400), 20 mg/ml prepared in 0.5 M LiCl in trifluoroethanol. All readings were taken with an Agilent 8453 Spectrophotometer which consisted of a cuvette holder, stirrer and chiller to maintain a stirred cuvette temperature of 10.0±0.1° C. The temperature was monitored by the use of temperature probe. […] The inhibitor was diluted in 100% DMSO, and then added to the assay to a maximum final concentration of 0.5% DMSO in the assay. […] The absorbance was measured at 330 nm for 300 s or 500 s for blank runs (NOTE: the substrate was added in one quick injection and the measurements started immediately to minimize mixing errors). A first order rate equation was fitted to the absorbance data, for each concentration of inhibitor, to obtain the rate constant (the first 10 to 15 seconds were excluded, as mixing causes errors in this portion of the curve). The catalytic rate was calculated from the enzymatic rate constant minus the background rate constant. An exponential curve was generated using the catalytic rate constants versus the inhibitor concentration to obtain the Ki value for the inhibitor. The Ki value is indicative of the binding affinity between the test compound and cyclophilin A.

[2] = target: T2, Human recombinant 6-His tagged cyclophilin D (CypD) (Homo sapiens, UniProt P30405); test: Protease-free PPIase assay, cyclophilin D; format: biochemical; details: human recombinant 6-His CypD, 10 °C, SUC-AAPF-pNA substrate; read-out: CypD Protease-free PPIase Assay Ki
T2 construct: 6-His
T2 sequence (P30405 30-207): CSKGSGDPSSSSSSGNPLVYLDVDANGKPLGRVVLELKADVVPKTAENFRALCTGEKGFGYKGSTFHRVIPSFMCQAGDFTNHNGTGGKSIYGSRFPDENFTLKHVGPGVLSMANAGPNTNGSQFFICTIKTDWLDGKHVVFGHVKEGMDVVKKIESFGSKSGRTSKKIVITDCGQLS
Procedure: as §1

[3] = target: T3, calcineurin (Homo sapiens, UniProt P62937+P63098+Q08209); test: Calcineurin Phosphatase (CaN) Assay; format: biochemical; details: in the presence of CypA, 1:1 complex of inhibitor with CypA
T3 construct: purchased Enzo Life Sciences BML-AK804
Source text: Calcineurin Phosphatase (CaN) Assay
The calcineurin phosphatase assay is a means for estimating the immunosuppressive potential of a test compound. Calcineurin is a serine-threonine protein phosphatase that on activation dephosphorylates members of the nuclear factor of activated T cells (NFAT), which are important in T lymphocyte activation.
To investigate the immunosuppressive potential of exemplary compounds of Formula I, which are cyclosporin analogs, their ability to inhibit calcineurin activity was measured in the presence and absence of CypA.
The CaN assay kit used is based on a colorimetric assay for measuring calcineurin phosphatase activity, and it is commercially available (Enzo Life Sciences and Calbiochem). Calmodulin is also required for calcineurin activity, and RII phosphopeptide is used as an efficient peptide substrate for calcineurin. […] The detection of free phosphate released is based on the classic Malachite green assay.
Enzo Life Sciences CaN Assay Kit: BML-AK804
For samples ‘without CypA’, a 4-point dilution series of the inhibitor was prepared in duplicate to obtain a final assay concentration of 10, 1, 0.1 and 0.01 μM. For samples ‘with CypA’, a 7-point dilution series was prepared to obtain a 1:1 complex of the inhibitor with CypA; the inhibitor and CypA final assay concentrations of 10, 3.33, 1.11, 0.37, 0.12, 0.04, 0.014 μM were prepared.
using the half area 96 well plates supplied with the kit, 10 μl UPW was added to duplicate wells to provide the non-inhibited control. 10 μl of the inhibitor or the inhibitor/CypA complex was added to the appropriate sample wells. 25 μl of the 2× assay buffer with calmodulin (CaM) was added to all wells, then 5 μl of calcineurin phosphatase (CaN) was added to all wells (40 U per well final concentration) except duplicate ‘no calcineurin blank’ wells to which 5 μL 1× assay buffer was added. The assay plate was placed in an oven at 30° C. for 15 minutes to equilibrate to the reaction temperature. The reaction was started by the addition of 10 μl RII-peptide (0.15 mM final concentration). The reaction was allowed to proceed at 30° C. for a time period in which the reaction is linear for about 60 minutes. The reaction was then terminated by adding 100 μl of the Malachite Green reagent. The color was allowed to develop for 15-30 minutes at room temperature before the absorbance at 620 nm was measured using a plate reader (Molecular Devices—SpectraMax M5). The data were analyzed by subtracting ‘no calcineurin blank’ from all the absorbance readings and plotting the background corrected absorbances against Log10 inhibitor concentration. A sigmoidal-dose response curve was fitted to the data using GraphPad Prism Software.
It exerts its immunosuppressive activity by binding to CypA to form a complex, which then binds to calcineurin and thereby inhibits calcineurin activity.

[4] = physchem; details: 25 °C, pH 7.4, aqueous buffer, kinetic from dmso stock
Procedure: The aqueous solubility of a compound of Formula I in buffer (pH 7.8) was measured by recording the onset of precipitation of the compound as a function of increasing concentration. The onset of precipitation, if it occurred, was detected by an increase in absorbance at 650 nm.
Stock solutions of Control and Test Compounds: 10 mM in 100% DMSO.
10 mM stock solutions of control and test compounds were prepared in 100% DMSO.
Assay buffer (247.5 μl) was placed into a flat bottomed transparent 96-well plate. For blank samples, DMSO (2.5 μl) was added. For test and control samples, 2.5 μl of the appropriate DMSO dilution stocks were added to the appropriate well. All test and control compounds were performed in triplicate.
The plates were sealed with adhesive plate seal and shaken at 250 rpm at 25° C. for 18 h on a plate shaker. After incubation, the plate seals were taken off and any bubbles observed in wells removed. The plates were read on a SpectraMaxM5 with a 5 s pre-shake at 650 nm.
Data files were transferred to the appropriate worksheet and the solubility range of the compounds was calculated from the data.

SMILES | Ki [1] [nM] | Ki [2] [nM] | IC50 [3] [nM] | solubility at 18 h [4] [µM]
CC[C@H]1NC(=O)[C@@H]([C@@H]2OC(=O)N(C)C[C@H]2C)N(C)C(=O)[C@@H](C(C)C)N(C)C(=O)[C@@H](CC(C)C)N(C)C(=O)[C@@H](CC(C)C)N(C)C(=O)[C@H](C)NC(=O)[C@@H](C)NC(=O)[C@@H](CC(C)C)N(C)C(=O)[C@@H](C(C)C)NC(=O)[C@H](CC(C)C)N(C)C(=O)[C@@H](C)N(C)C1=O [Compound 22] | 315 | 160 | > 10000 | > 100
CC[C@H]1NC(=O)[C@@H]([C@@H]2OCC[C@H]2C)N(C)C(=O)[C@@H](C(C)C)N(C)C(=O)[C@@H](CC(C)C)N(C)C(=O)[C@@H](CC(C)C)N(C)C(=O)[C@H](C)NC(=O)[C@@H](C)NC(=O)[C@@H](CC(C)C)N(C)C(=O)[C@@H](C(C)C)NC(=O)[C@H](CC(C)C)N(C)C(=O)[C@@H](C(F)F)N(C)C1=O [Compound 5, [(2S)-2-(methylamino)-2-[(2R,3R)-3-methyltetrahydrofuran-2-yl]acetic acid]^1 [(S)-difluoromethyl-Sar]^3 cyclosporin A] | 198 | 14.5 | > 10000 | 50 (≈ 61.2 µg/mL)
CC[C@H]1NC(=O)[C@@H]([C@@H]2OCC[C@H]2C)N(C)C(=O)[C@@H](C(C)C)N(C)C(=O)[C@@H](CC(C)C)N(C)C(=O)[C@@H](CC(C)C)N(C)C(=O)[C@H](C)NC(=O)[C@@H](C)NC(=O)[C@@H](CC(C)C)N(C)C(=O)[C@@H](C(C)C)NC(=O)[C@H](CC(C)C)N(C)C(=O)[C@@H](C)N(C)C1=O [Compound 3, [(2S)-2-(methylamino)-2-[(2R,3R)-3-methyltetrahydrofuran-2-yl]acetic acid]^1 [(R)-methyl-Sar]^3 cyclosporin A] | 95 | 4.4 | > 10000 | > 100
CC[C@H]1NC(=O)[C@@H](C2OC(C)C[C@H]2C)N(C)C(=O)[C@@H](C(C)C)N(C)C(=O)[C@@H](CC(C)C)N(C)C(=O)[C@@H](CC(C)C)N(C)C(=O)[C@H](C)NC(=O)[C@@H](C)NC(=O)[C@@H](CC(C)C)N(C)C(=O)[C@@H](C(C)C)NC(=O)[C@H](CC(C)C)N(C)C(=O)[C@@H](C)N(C)C1=O (stereo partly drawn) [Compound 26, [(2S)-2-[(2R,3R)-3,5-dimethyltetrahydrofuran-2-yl]-2-(methylamino)acetic acid]^1 [(R)-methyl-Sar]^3 cyclosporin A] | 275 | 64 | > 10000 | 75 (≈ 90.2 µg/mL)
CC[C@H]1NC(=O)[C@H]([C@H]2OCC[C@H]2C)N(C)C(=O)[C@@H](C(C)C)N(C)C(=O)[C@@H](CC(C)C)N(C)C(=O)[C@@H](CC(C)C)N(C)C(=O)[C@H](C)NC(=O)[C@@H](C)NC(=O)[C@@H](CC(C)C)N(C)C(=O)[C@@H](C(C)C)NC(=O)[C@H](CC(C)C)N(C)C(=O)[C@@H](C)N(C)C1=O [Compound 18, [(2S)-2-(methylamino)-2-[(2S,3R)-3-methyltetrahydrofuran-2-yl]acetic acid]^1 [(R)-methyl-Sar]^3 cyclosporin A] | 79 | 15 | > 10000 | 25 (≈ 29.7 µg/mL)
CC(C)C[C@@H]1C(=O)N(C)[C@H](CC(C)C)C(=O)N(C)[C@H](C(C)C)C(=O)N(C)[C@H]([C@@H]2OC(O)C[C@H]2C)C(=O)N[C@H](C(C)C)C(=O)N(C)[C@H](C)C(=O)N(C)[C@@H](CC(C)C)C(=O)N[C@H](C(C)C)C(=O)N(C)[C@H](CC(C)C)C(=O)N[C@H](C)C(=O)N[C@@H](C)C(=O)N1C (stereo partly drawn) [Compound 14, [(2S)-2-[(2R,3R)-5-Hydroxy-3-methyl-tetrahydrofuran-2-yl]-2-(methylamino)acetic acid]^1 [(R)-methyl-Sar]^3 cyclosporin D] (cyclo(A[dNMeL][dNMeL][dNMeV][X2][dV][dNMeA][NMeL][dV][dNMeL][dA])) | 20.4 | 8.4 | > 10000 | > 100
CC[C@H]1NC(=O)[C@@H]([C@@H]2OCN(C)C[C@H]2C)N(C)C(=O)[C@@H](C(C)C)N(C)C(=O)[C@@H](CC(C)C)N(C)C(=O)[C@@H](CC(C)C)N(C)C(=O)[C@H](C)NC(=O)[C@@H](C)NC(=O)[C@@H](CC(C)C)N(C)C(=O)[C@@H](C(C)C)NC(=O)[C@H](CC(C)C)N(C)C(=O)[C@@H](C)N(C)C1=O [Compound 24] | 550 | 79 | > 10000 | > 100
CCC[C@@H]1C(=O)N(C)[C@@H](CC(C)C)C(=O)N[C@H](C(C)C)C(=O)N(C)[C@H](CC(C)C)C(=O)N[C@H](C)C(=O)N[C@@H](C)C(=O)N(C)[C@H](CC(C)C)C(=O)N(C)[C@H](CC(C)C)C(=O)N(C)[C@H](C(C)C)C(=O)N(C)[C@H]([C@@H]2OCC[C@H]2C)C(=O)N[C@H](CC)C(=O)N1C [Compound 2, [(2S)-2-(methylamino)-2-[(2R,3R)-3-methyltetrahydrofuran-2-yl]acetic acid]^1 [(R)-propyl-Sar]^3 cyclosporin A] | 237 | 39 | > 10000 | 50 (≈ 60.8 µg/mL)
CC(C)C[C@@H]1C(=O)N(C)[C@H](CC(C)C)C(=O)N(C)[C@H](C(C)C)C(=O)N(C)[C@H]([C@@H]2OCC[C@H]2C)C(=O)N[C@H]([C@@H](C)O)C(=O)N(C)CC(=O)N(C)[C@@H](CC(C)C)C(=O)N[C@H](C(C)C)C(=O)N(C)[C@H](CC(C)C)C(=O)N[C@H](C)C(=O)N[C@@H](C)C(=O)N1C [Compound 8, [(2S)-2-(methylamino)-2-[(2R,3R)-3-methyltetrahydrofuran-2-yl]acetic acid]^1 cyclosporin C] | 1500 | 105 | > 10000 | > 100
CC(C)C[C@@H]1C(=O)N(C)[C@H](CC(C)C)C(=O)N(C)[C@H](C(C)C)C(=O)N(C)[C@H]([C@@H]2OCC[C@H]2C)C(=O)N[C@H](C)C(=O)N(C)[C@H](C)C(=O)N(C)[C@@H](CC(C)C)C(=O)N[C@H](C(C)C)C(=O)N(C)[C@H](CC(C)C)C(=O)N[C@H](C)C(=O)N[C@@H](C)C(=O)N1C [Compound 10, [(2S)-2-(methylamino)-2-[(2R,3R)-3-methyltetrahydrofuran-2-yl]acetic acid]^1 [(R)-methyl-Sar]^3 cyclosporin B] (cyclo(A[dNMeL][dNMeL][dNMeV][X1][dA][dNMeA][NMeL][dV][dNMeL][dA])) | 2000 | 680 | > 10000 | > 100
CC(C)C[C@@H]1C(=O)N(C)[C@H](CC(C)C)C(=O)N(C)[C@H](C(C)C)C(=O)N(C)[C@H]([C@@H]2OCC[C@H]2C)C(=O)N[C@H](C(C)C)C(=O)N(C)CC(=O)N(C)[C@@H](CC(C)C)C(=O)N[C@H](C(C)C)C(=O)N(C)[C@H](CC(C)C)C(=O)N[C@H](C)C(=O)N[C@@H](C)C(=O)N1C [Compound 7, [(2S)-2-(methylamino)-2-[(2R,3R)-3-methyltetrahydrofuran-2-yl]acetic acid]^1 cyclosporin D] | 400 | 81 | > 10000 | 75 (≈ 89.1 µg/mL)
